# Like-named read-outs stand apart in the source and are kept apart here.
# Tests used:
# Assay in all cases: Kinase panel profiling at 1 µmol/L (MSA or IMAP), percentage inhibition
# Type in all cases: biochemical
# [1] = target: T1, panel of 255 wild-type kinases (Homo sapiens, UniProt O15264); details: read-out: %-inhibition, p38δ
# T1 sequence (O15264 1-365): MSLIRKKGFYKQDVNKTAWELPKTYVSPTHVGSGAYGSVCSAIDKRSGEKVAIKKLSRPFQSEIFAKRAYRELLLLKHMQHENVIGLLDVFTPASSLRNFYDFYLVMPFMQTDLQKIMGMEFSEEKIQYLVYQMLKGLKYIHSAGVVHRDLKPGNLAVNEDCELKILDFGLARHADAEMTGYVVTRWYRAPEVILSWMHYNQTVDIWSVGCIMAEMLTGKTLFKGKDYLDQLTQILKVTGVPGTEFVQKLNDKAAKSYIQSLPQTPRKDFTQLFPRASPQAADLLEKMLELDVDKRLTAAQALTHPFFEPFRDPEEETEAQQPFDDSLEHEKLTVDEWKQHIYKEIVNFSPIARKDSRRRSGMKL
# [2] = target: T2, panel of 255 wild-type kinases (Homo sapiens, UniProt P15735); details: read-out: %-inhibition at 1 µmol/L, PHKG2
# T2 sequence (P15735 1-406): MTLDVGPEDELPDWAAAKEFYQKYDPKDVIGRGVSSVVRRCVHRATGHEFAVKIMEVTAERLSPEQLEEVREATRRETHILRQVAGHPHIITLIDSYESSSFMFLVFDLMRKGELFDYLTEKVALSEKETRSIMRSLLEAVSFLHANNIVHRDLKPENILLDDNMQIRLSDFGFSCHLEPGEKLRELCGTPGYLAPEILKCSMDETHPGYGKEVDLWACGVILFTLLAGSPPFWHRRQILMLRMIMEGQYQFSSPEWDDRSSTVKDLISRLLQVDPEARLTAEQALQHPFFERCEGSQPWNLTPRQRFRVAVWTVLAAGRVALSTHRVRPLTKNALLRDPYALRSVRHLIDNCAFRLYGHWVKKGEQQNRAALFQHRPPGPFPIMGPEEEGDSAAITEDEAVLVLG
# [3] = target: panel of 255 wild-type kinases (Homo sapiens, UniProt P16591); details: read-out: %-inhibition at 1 µmol/L, FER
# [4] = target: panel of 255 wild-type kinases (Homo sapiens, UniProt P42684); details: read-out: %-inhibition ARG
# [5] = target: panel of 255 wild-type kinases (Homo sapiens, UniProt P43405); details: read-out: %-inhibition at 1 µmol/L, SYK
# [6] = target: panel of 255 wild-type kinases (Homo sapiens, UniProt Q00526); details: read-out: %-inhibition CDK3/CycE1
# [7] = target: T3, panel of 255 wild-type kinases (Homo sapiens, UniProt Q05513); details: read-out: %-inhibition at 1 µmol/L, PKCζ
# T3 sequence (Q05513 1-592): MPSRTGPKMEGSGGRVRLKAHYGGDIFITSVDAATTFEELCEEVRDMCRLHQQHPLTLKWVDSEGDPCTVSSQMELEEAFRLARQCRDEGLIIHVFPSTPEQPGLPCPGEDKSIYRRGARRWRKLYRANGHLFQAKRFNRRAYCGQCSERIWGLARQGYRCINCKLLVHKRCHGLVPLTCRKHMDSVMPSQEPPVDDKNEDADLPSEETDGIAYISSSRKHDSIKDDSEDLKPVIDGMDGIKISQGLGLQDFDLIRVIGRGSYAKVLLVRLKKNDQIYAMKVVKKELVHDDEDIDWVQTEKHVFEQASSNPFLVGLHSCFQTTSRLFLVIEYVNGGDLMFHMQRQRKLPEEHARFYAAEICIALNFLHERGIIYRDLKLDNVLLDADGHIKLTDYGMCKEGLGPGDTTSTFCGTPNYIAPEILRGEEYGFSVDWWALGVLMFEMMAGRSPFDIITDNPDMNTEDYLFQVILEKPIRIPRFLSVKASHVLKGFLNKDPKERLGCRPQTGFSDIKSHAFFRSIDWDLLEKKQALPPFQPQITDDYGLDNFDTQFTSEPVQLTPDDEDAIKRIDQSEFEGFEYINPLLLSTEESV
# [8] = target: T4, panel of 255 wild-type kinases (Homo sapiens, UniProt Q08881); details: read-out: %-inhibition at 1 µmol/L, ITK
# T4 sequence (Q08881 1-620): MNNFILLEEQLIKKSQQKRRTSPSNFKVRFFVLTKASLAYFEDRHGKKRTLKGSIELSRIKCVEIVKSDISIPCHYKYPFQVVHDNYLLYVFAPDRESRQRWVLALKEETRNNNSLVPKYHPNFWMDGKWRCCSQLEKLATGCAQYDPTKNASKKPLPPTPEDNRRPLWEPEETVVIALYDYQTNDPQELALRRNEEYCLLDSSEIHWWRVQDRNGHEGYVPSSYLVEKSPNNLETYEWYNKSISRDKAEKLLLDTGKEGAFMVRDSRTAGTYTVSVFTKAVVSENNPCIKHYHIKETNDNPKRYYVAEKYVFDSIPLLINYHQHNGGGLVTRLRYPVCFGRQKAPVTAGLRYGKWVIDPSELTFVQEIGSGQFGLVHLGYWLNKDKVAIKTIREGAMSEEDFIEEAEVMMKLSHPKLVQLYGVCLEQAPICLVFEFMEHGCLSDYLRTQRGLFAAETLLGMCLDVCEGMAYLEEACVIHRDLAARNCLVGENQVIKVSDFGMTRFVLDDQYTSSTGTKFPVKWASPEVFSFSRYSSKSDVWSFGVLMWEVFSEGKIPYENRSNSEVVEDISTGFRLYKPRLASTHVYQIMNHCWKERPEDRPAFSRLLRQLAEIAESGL
# [9] = target: panel of 255 wild-type kinases (Homo sapiens, UniProt Q16816); details: read-out: %-inhibition at 1 µmol/L, PHKG1
# [10] = p38δ, 1 µmol/L single concentration
# [11] = kinase PHKG2, 1 µmol/L single concentration
# [12] = kinase FER, 1 µmol/L single concentration
# [13] = ARG kinase assay, 1 µmol/L single concentration
# [14] = kinase SYK, 1 µmol/L single concentration
# [15] = CDK3/CycE1 kinase assay, 1 µmol/L single concentration
# [16] = kinase PKCζ, 1 µmol/L single concentration
# [17] = kinase ITK, 1 µmol/L single concentration
# [18] = kinase PHKG1, 1 µmol/L single concentration
SMILES,"inhibition at 1 µM [1, 10]","inhibition at 1 µM [2, 11]","inhibition at 1 µM [3, 12]","inhibition at 1 µM [4, 13]","inhibition at 1 µM [5, 14]","inhibition at 1 µM [6, 15]","inhibition at 1 µM [7, 16]","inhibition at 1 µM [8, 17]","inhibition at 1 µM [9, 18]",inhibition at 1 µM [5],inhibition at 1 µM [1],inhibition at 1 µM [2],inhibition at 1 µM [3],inhibition at 1 µM [4],inhibition at 1 µM [6],inhibition at 1 µM [7],inhibition at 1 µM [8],inhibition at 1 µM [9]
Cc1nc(NC(=O)N2CCC[C@H]2C(N)=O)sc1-c1ccnc(C(C)(C)C(F)(F)F)c1 [alpelisib],-4.21%,1.64%,-1.86%,3.28%,-23%,-4%,14%,9%,-1.22%,,,,,,,,,
Cn1cc(-c2cc3c(N4CCN(c5ncc([C@@](C)(N)c6ccc(F)cc6)cn5)CC4)ncnn3c2)cn1 [avapritinib],0.654%,5.4%,1.71%,47%,,-2.7%,-0.226%,19%,-0.381%,44%,,,,,,,,
Cn1cnc2c(F)c(Nc3ccc(Br)cc3F)c(C(=O)NOCCO)cc21 [binimetinib],3.49%,-3.26%,4.71%,1.39%,-19%,-4.57%,10%,1.61%,1.77%,,,,,,,,,
CNC(=O)c1ccc(-c2cnc3ncc(Cc4ccc5ncccc5c4)n3n2)cc1F [capmatinib],,,,,,,,,,2.11%,-4%,0.266%,2.2%,3.29%,-14%,0.759%,5%,-2.39%
COc1cc2ncnc(Nc3ccc(F)c(Cl)c3)c2cc1NC(=O)/C=C/CN1CCCCC1 [dacomitinib],0.0743%,11%,6.35%,40%,-8%,-1.66%,24%,24%,25%,,,,,,,,,
C[C@H](Nc1ncnc2nc[nH]c12)c1cc2cccc(Cl)c2c(=O)n1-c1ccccc1 [duvelisib],-3%,0.785%,-1.81%,0.877%,-2.35%,-0.613%,16%,9%,-1.8%,,,,,,,,,
COC(=O)N[C@@H](C)CNc1nccc(-c2cn(C(C)C)nc2-c2cc(Cl)cc(NS(C)(=O)=O)c2F)n1 [encorafenib],5%,-1.79%,5%,1.69%,-20%,-2%,19%,3.49%,3%,,,,,,,,,
CN1CCN(c2ccc(C(=O)Nc3n[nH]c4ccc(Cc5cc(F)cc(F)c5)cc34)c(NC3CCOCC3)c2)CC1 [entrectinib],-3%,41%,99%,83%,-5.27%,5.63%,17%,99%,54%,,,,,,,,,
CCc1nc(C(N)=O)c(Nc2ccc(N3CCC(N4CCN(C)CC4)CC3)c(OC)c2)nc1NC1CCOCC1 [gilteritinib],1.74%,59%,99%,61%,70%,7%,21%,92%,92%,,,,,,,,,
CCN1CCN(c2ccc(Nc3cc(N(C)C(=O)Nc4c(Cl)c(OC)cc(OC)c4Cl)ncn3)cc2)CC1 [infigratinib],-4%,1.64%,9.48%,24%,-17%,-10%,3.18%,6%,0.355%,,,,,,,,,
O=C(Nc1cnn2ccc(N3CCC[C@@H]3c3cc(F)ccc3F)nc12)N1CC[C@H](O)C1 [larotrectinib],-7%,5.63%,3.72%,-0.835%,-8%,1.79%,0.558%,13%,1.81%,,,,,,,,,
C[C@H]1Oc2cc(cnc2N)-c2c(nn(C)c2C#N)CN(C)C(=O)c2ccc(F)cc21 [lorlatinib],-3.52%,92%,,1.49%,16%,3%,17%,14%,65%,,,,,,,,,
CCN1C(=O)N(c2c(F)c(OC)cc(OC)c2F)Cc2cnc3[nH]c(CN4CCOCC4)cc3c21 [pemigatinib],-6%,8%,-3%,7%,-4.26%,11%,-0.0817%,2%,6%,,,,,,,,,
FC(F)(F)c1ccc(CNc2ccc(Cc3c[nH]c4ncc(Cl)cc34)cn2)cn1 [pexidartinib],1.15%,4.25%,21%,7%,-6%,-1.23%,13%,9%,21%,,,,,,,,,

# Reference: PMC9516332 (Frontiers in Oncology, 2022)
